The values below come from patent US20070071688A1, “Pharmaceutical compositions for transdermal administration of anti-inflammatory agents” (sanofi-aventis, priority 2000, published 2007).

The nature of data set [1]: Saturation solubility of ibuprofen in components of the transdermal formulation (without matrix). In kind it is physicochemical. The conditions noted are these: 30° C. As for the experimental part:
Comparative tests were carried out in order to determine the saturation solubility of ibuprofen in various components of the transdermal formulation of the invention in the absence of matrix, namely water, 2-ethylhexyl 2-ethylhexanoate as transcutaneous absorption promoter, referred to hereinbelow as “promoter”, and isopropanol as nonaqueous solvent.
These various components were used alone or as homogeneous mixtures forming a clear solution, and the solubility measurements were performed at 30° C., after 24 hours of magnetic stirring and after filtration through a 0.22 μm filter.

The nature of data set [2]: Preliminary trials on solubility of ibuprofen in various solvents or components. In kind it is physicochemical. The method, then:
In the context of the present invention, preliminary trials were carried out directed essentially toward studying the solubility of ibuprofen in various solvents or components.

In brackets after ≈: the same amount, converted by molar mass.

On to `CC(C)Cc1ccc(C(C)C(=O)O)cc1` (centres unmarked) [Ibuprofen], for which the Ibuprofen saturating concentration was 403 mg/mL in data set [1] (isopropanol 68.21 / promoter 31.79 % m/m, no water, 24 hours); 424 mg/mL in data set [1] (isopropanol 89.31 / promoter 10.69 % m/m, no water, 24 hours); 441 mg/mL in data set [1] (isopropanol 100% m/m, 24 hours magnetic stirring, 0.22 μm filtration); 192 mg/mL in data set [1] (promoter (2-ethylhexyl 2-ethylhexanoate) 100% m/m, 24 hours magnetic stirring, 0.22 μm filtration); 451 mg/mL in data set [1] (water 4.33 / isopropanol 85 / promoter 10.67 % m/m, 24 hours); 431 mg/mL in data set [1] (water 4.38 / isopropanol 68.16 / promoter 27.46 % m/m, 24 hours). Further, the Ibuprofen saturating concentration was 436 mg/mL in data set [1] (water 8.54 / isopropanol 68.23 / promoter 23.23 % m/m, 24 hours) and 448 mg/mL in data set [1] (water 8.59 / isopropanol 80.7 / promoter 10.69 % m/m, 24 hours). For the same compound, the solubility thermodynamic at 24 h in data set [1] (thermodynamic from solid, water 100% m/m, 24 hours magnetic stirring, 0.22 μm filtration, read-out: Ibuprofen saturating concentration) came out at 69 µg/mL (≈ 334 µM). Also, in data set [2], the solubility in water result was “entirely water-insoluble”. Also, the “solubility in fatty acid ester/alcohol mixtures” value in data set [2] (2-ethylhexyl 2-ethylhexanoate/ethanol or isopropanol mixtures) is recorded as “soluble”.
